Experimental data: patent US6962712B2, “Cosmetic or dermatological composition comprising of a combination of an elastase inhibitor of the N-acylaminoamide family and at least one antifungal agent or at least one antibacterial agent” (L'Oreal, priority 2001, dated 2005)

Columns and labels:
[1] = tested on: surviving human skins irradiated by UVA; assay: surviving human skins irradiated by UVA (8 J/cm2), morphometry of elastin fibres and collagen (Example 6); settings: UVA 8 J/cm2 once, 5 μl of compound at 0.2% in ethanol every two days, 7 days at 37° C.
Method: The activity of the compound of Example 2 was evaluated on irradiated surviving human skins irradiated by UVA (8 J/cm2).
The test is performed in the following manner:
Fragments of normal human skin derived from four different donors are deposited in inserts placed in culture wells. Culture medium supplemented with antibiotics is added to the bottom of the wells. Passage by slow diffusion occurs between the two compartments through the intermediary of a porous membrane (pore size: 12 μm).
The culture medium is renewed every three days.
Every two days 5 μl of the test compound previously dissolved at 0.2% in ethanol are added to the skin fragments.
The skins are maintained in survival for 7 days at 37° C.
The skins are irradiated once only at 8 J/cm2 (Vilbert-Lourmat RMX-3W lamp).
The elastin fibres are stained blue with (+) catechol and quantified morphometrically by computer-assisted image analysis. The mean percentage dermal surface area occupied by the elastin fibres was thus evaluated.

[2] = molecular target: T1, human leukocyte elastase (HLE) (Homo sapiens, UniProt P08246); assay: in vitro anti-elastase activity against human leukocyte elastase, substrate Me-OSAAPV-p-NA, spectrophotometry; format: biochemical; settings: compound concentration 0.1%; HLE 40 milliunits per ml; 37° C., 60 minutes
T1 sequence (P08246 30-267): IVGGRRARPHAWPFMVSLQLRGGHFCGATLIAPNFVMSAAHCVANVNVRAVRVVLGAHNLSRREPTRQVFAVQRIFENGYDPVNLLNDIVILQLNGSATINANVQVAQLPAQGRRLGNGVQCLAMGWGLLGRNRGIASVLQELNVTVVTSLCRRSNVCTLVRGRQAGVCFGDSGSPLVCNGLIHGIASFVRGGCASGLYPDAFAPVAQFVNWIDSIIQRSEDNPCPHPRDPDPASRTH
Method: The anti-elastase activity of compounds according to the invention was determined in vitro against human leukocyte elastase (HLE)
The test was performed in the following manner:
A substrate Me-OSAAPV-p-NA (methyl-O-succinate alanine alanine proline valine-p-nitroanilide) to which is added the HLE (40 milliunits per ml) and 0.1% of the test compound is incubated at 37° C. for 60 minutes.
The % of inhibition of the elastase activity tested is then determined by spectrophotometry.

Staphylococcus epidermis [3] = assay: ex vivo bacteria/skin adhesion model, 3H-thymidine labelled bacteria on intact human skin (Example 9); format: cell-based; settings: for Adherent bacteria: control (PBS) = 100%
Method: The activity of resveratrol on the adhesion of micro-organisms to human skin or human mucous membranes was measured.
The activity of resveratrol (3,4′,5-trihydroxystilbene) on the adhesion of micro-organisms to human skin or human mucous membranes was tested in a bacteria/skin adhesion model, such as described below.
This ex vivo bacteria/skin adhesion model is based on the use of explants of intact human skin mounted in a sandwich between a bottomless 96 wells plate and a Plexiglas support.
(§1) This ex vivo bacteria/skin adhesion model is based on the use of intact human skin mounted in a sandwich between a bottomless 96 wells plate and a Plexiglas support. The impervious individualized wells make it possible to test in a standard format the effect of resveratrol on the adhesion of Staphylococcus epidermis (resident bacteria) to the surface of the skin. The bacteria are radiolabelled in the growth phase by the incorporation of 3H-thymidine. This bacterial flora is then deposited in each well. After incubation for one hour at 20° C., the wells are washed three times with phosphate buffered saline (PBS) in order to remove the free bacteria. The acacia honey is then added at 5 and 10% and incubation allowed to proceed for 1 hour at 20° C. At the end of this incubation the content of each well is recovered and counted in scintillation fluid (desorbed bacteria). The wells are then washed with a chaotropic solution which leads to the elution of the adherent bacteria. The washing solutions are also counted in scintillation fluid (adherent bacteria). A positive control (Fucogel® acid (poly-[(α-1,3)-Fuc-(α-1,3)-Gal-(α-1,3)-galacturonic]) acid is included in the study as reference.

Staphylococcus epidermis [4] = assay: ex vivo bacteria/skin adhesion model, 3H-thymidine labelled bacteria on intact human skin (Example 8); format: cell-based; settings: test product at 10%, 1 hour at 20° C., control (PBS) = 100%
Method: The activity of the honey on the adhesion of micro-organisms to the skin or to human mucous membranes was measured.
as §1, with “of acacia honey” for “of resveratrol”, “bacteria). The” for “bacteria). A”, “positive and negative controls” for “positive control”, “acid and Bioecolia® (Oligo-[α-1,4)-Gluc-(α-1,2)-Fruc-(α-1,6)-Gluc]) described in the publication of Wolf F. et al. (edition of 19th IFSCC Congress, Sydney, 1996) are” for “acid is”, “as references.” for “as reference.”

[5] = Staphylococcus, read-out: % of inhibition of adhesion of the bacteria

For `CC(=O)N(c1cccc(C(F)(F)F)c1)C(C(=O)NCC(=O)O)C(C)C` (centres unmarked) [Compound A, {2-[acetyl-(3-trifluoromethyl-phenyl)-amino]-3-methyl-butyrylamino}acetic acid], the “Morphometric analysis of elastin fibres (superficial dermis)” value ([1]; untreated 6.75%, UVA alone 3.9%) was 6.8% and the “Morphometric analysis of collagen (superficial dermis)” value ([1]; untreated 87%, UVA alone 81%) was 92%.
`CCOP(=O)(CC(=O)N(Cc1ccccc1)C(C(=O)NCCOC(C)=O)C(C)C)OCC` (centres unmarked) [Compound B, (2-{benzyl-[(diethoxy-phosphoryl)-acetyl]-amino}-3-methyl-butyryl-amino)ethyl acetate] was tested, and the “% inhibition of elastase activity tested” value [2] was 17%.
In the case of `CC(=O)OCCNC(=O)C(C(C)C)N(Cc1ccccc1)C(C)=O` (centres unmarked) [Compound D, [2-(acetyl-benzyl-amino)-3-methyl-butyrylamino]ethyl acetate], the “% inhibition of elastase activity tested” value [2] was 13%.
With `Oc1ccc(C=Cc2cc(O)cc(O)c2)cc1` [resveratrol, 3,4′,5-trihydroxystilbene] the Adherent bacteria (Staphylococcus epidermis [3]; 0.1 μM) was 71%, the Adherent bacteria (Staphylococcus epidermis [3]; 10 μM) was 64% and the inhibition at 0.1 µM (Staphylococcus epidermis [3]; [5]) was 29%. For the same compound, the inhibition at 10 µM (Staphylococcus epidermis [3]; [5]) was 36%.
For “Oligo-[α-1,4)-Gluc-(α-1,2)-Fruc-(α-1,6)-Gluc] [Bloé´colia ®]”, the Adherent bacteria (Staphylococcus epidermis [4]) was 76%, the Desorbed bacteria (Staphylococcus epidermis [4]) was 89% and the Adherent bacteria (Staphylococcus epidermis [4]; listed as Bioecolia®) was “no significant effect on adhesion”.
Compound “poly-[(α-1,3)-Fuc-(α-1,3)-Gal-(α-1,3)-galacturonic]) acid [Fucogel ®]” has an Adherent bacteria (Staphylococcus epidermis [4]) of 12%, a Desorbed bacteria (Staphylococcus epidermis [4]) of 257% and an Adherent bacteria (Staphylococcus epidermis [3]; test product at 10%) of 42%.
